Data on 54 substances can be found in US8828942B2, “Means for treating synucleinopathies” (Affiris AG, priority 2009, dated 2014).

Experiment [1] has as its system monoclonal antibody 12-9-9. The experiment can be described thus: In vitro binding assay (ELISA) with monoclonal antibody 12-9-9. Set-up: species or system mouse; key to Binding: 0: no binding to 12-9-9 detectable in ELISA; 1: weak binding: binding of mimotope weaker compared to the minimal original sequence p5436; 2: strong binding: binding of mimotope similar to the minimal original sequence p5436. To be noted: for Binding: binding capacity to 12-9-9 in ELISA, peptide-BSA coated (1 μM), compared with p5436; for detection/binding by monoclonal antibody 12-9-9 in ELISA: result in words. From the text: A monoclonal antibody derived from the fusion “AFFiRiS 6”: Balb/c mice (Charles River) were immunized with original alpha-synuclein epitope LGKNEEGAPQ-C (SEQ ID NO:3) coupled to BTG (bovine thyroglobuline) and CFA (complete Freund's adjuvant; first injection) as well as IFA (incomplete Freund's adjuvant; 3 booster injections) as adjuvant. LGKNEEGAPQ-peptide-specific (SEQ ID NO: 203) antibody-producing hybridomas are detected by ELISA (LGKNEEGAPQC-peptide-coated (SEQ ID NO: 3)ELISA plates). Human alpha-synuclein (recombinant protein, p4446) is used as positive control peptide: hybridomas recognizing the recombinant protein immobilized on ELISA plates are included because they are binding both peptide and full length alpha-synuclein specifically. […] The Hybridoma clone (12-9-9; IgG1, kappa) was analysed for specific detection of the natural human alpha-synuclein epitope LGKNEEGAPQ. (SEQ ID NO: 203). 12-9-9 recognizes the injected epitope as well as full length alpha-synuclein protein (recombinant protein; obtained from rPeptide, Bogart, Ga., USA) in ELISA (see FIG. 2). […] Thus the minimal required epitope for binding has been defined as KNEEGAP (SEQ ID NO: 139).
Peptides derived from Phage Display as well as N-terminally truncated variants thereof were coupled to BSA and bound to ELISA plates (1 μM) and subsequently incubated with the monoclonal antibody that was used for the screening procedure to analyse binding capacity of identified peptides (see FIG. 4).
For orientation: An ELISA detects its analyte on a solid surface through an enzyme-linked reagent.

Experiment [2] relates to monoclonal antibody 12-9-9. The experiment in a line: In vitro inhibition assay (ELISA). It is filed as binding, mouse. Set-up: key: 0: no competition of 12-9-9 detectable in ELISA; 1: weak competition: competition of mimotope weaker compared to the minimal original sequence p5436; 2: strong competition: competition of mimotope similar to the minimal original sequence p5436. To be noted: competition capacity in ELISA, peptide 400 μg/ml to 3 μg/ml, plates coated with p5436 and p4446. How it is done: Different amounts of peptides (concentrations ranging from 400 μg/ml to 3 μg/ml (serial dilutions), derived from Phage Display were incubated with the monoclonal antibody that was used for the screening procedure. Peptides diminishing subsequent binding of the antibody to the original human alpha-synuclein epitope (p5436) and the human alpha-synuclein protein (p4446) coated on ELISA plates were considered as inhibiting in this assay.

Experiment [3] concerns recombinant human alpha-synuclein protein. The experiment in a line: In vivo testing of mimotopes: serum titer against alpha-synuclein (ELISA). The note with it: mice immunized with peptide-KLH, alum, OD halfmax. The method, then: Inhibiting as well as non-inhibiting peptides were coupled to KLH and injected into mice (wildtype C57/B16 or BalbC mice; subcutaneous injection into the flank) together with an appropriate adjuvant (aluminium hydroxide). Animals were vaccinated 3 times in biweekly intervals and sera were taken biweekly as well. Titers to injected peptides as well as to an irrelevant peptide were determined with every serum. Titers against the recombinant human alpha-synuclein protein and recombinant human beta-synuclein were determined starting with Serum 2 respectively. In general sera were analysed by reaction against peptides coupled to Bovine Serum Albumin (BSA) and recombinant full length proteins which were immobilised on ELISA plates. Titers were determined using anti mouse IgG specific antibodies. For examples of immunogenicity against injected peptide and alpha-synuclein see Table 5 and Table 6.
Female C57/B16 mice or BalbC, 5-6 mice per group, were subcutaneously immunized with 30 μg peptide coupled to KLH. Control groups were injected with PBS or the original epitope. As adjuvant alum was used. The peptides administered were all able to bind to monoclonal antibodies specifically binding aa100-109 of human alpha-synuclein although some of the peptides did inhibit the binding of the original epitope to its parental antibody in vitro only weakly (in an in vitro inhibition assay). The in vitro ELISA assay to determine the antibody titer was performed with sera of single mice (see Tab. 5) after each vaccination in a two week interval. The wells of the ELISA plate were coated with mimotope-BSA conjugates. The positive control was performed by reaction of the parental antibody with the respective mimotope-BSA conjugate. The detection was performed with anti-mouse IgG. Additionally, recombinant proteins were immobilised on ELISA plates and sera reacted accordingly. For all mimotopes tested in C57/B16 mice or BalbC, antibodies reacting to the individual injected peptide could be detected after repeated vaccination. Although not all mice induced higher titer against alpha-synuclein (see tab. 5 for examples).

“Also recorded” adds a separate entry of the source.

GKNEEGAPQC [p5397, reference compound]: in experiment [1], the Binding came out at 2 and the “detection/binding by monoclonal antibody 12-9-9 in ELISA” value (“detection/binding” below) is recorded as “retained full binding capacities”. The Competition in experiment [2] turned out to be 2. For QPSFAMEC [p5462, mimotope], in experiment [1], the Binding amounted to 2. Further, in experiment [3], the “class of immunogenicity: a Syn” value was 0 (peptides inducing no immune response or a very low immune response with OD halfmax around 50 or lower.). Consider HNEEGAPC [p5444, mimotope], for which, in experiment [1], the Binding was determined as 2 and the “detection/binding” value was “detected much weaker than the human epitope”. In experiment [1], CKNEEGAP [p5435, reference compound] returned a Binding of 2. Further, the Competition in experiment [2] worked out at 1. Consider HSEEGAPC [p5593, mimotope], for which, in experiment [1], the Binding was found to be 1. Same read-out and setting: as for KSEDGAPC [p5601, mimotope], the figure is 2.

In experiment [1], TPAWKGEC [p5551, mimotope] returned a Binding of 1.

In experiment [1], ASEEGAPC [p5594, mimotope] displayed a Binding of 1. In experiment [1], KNDDGAPC [p5449, mimotope] showed a Binding of 2. Further, the Competition in experiment [2] is reported as 1. The substance TPSWKGEC [p5464, mimotope] gave a Binding in experiment [1] of 2. The substance also gave a Competition in experiment [2] of 1. The “class of immunogenicity: a Syn” value in experiment [3] is on record as 0 (peptides inducing no immune response or a very low immune response with OD halfmax around 50 or lower.). The substance Alpha-synuclein [p4446] registered a Binding in experiment [1] of 2. The “detection/binding” value in experiment [1] was “detected; also recorded: retained full binding capacities”; in experiment [1] (listed as Alpha-Synuclein) it was “detected similarly”; in experiment [1] (listed as alpha-synuclein protein), “recognizes”. In turn, RSAEGAPC [p5605, mimotope] had a Binding in experiment [1] of 2. The same measure, in the same setting: the figure for RSEDGAPC [p5607, mimotope] is 2.

In the case of LGKNEEGC [p5404, reference compound], the “detection/binding” value in experiment [1] is “lost binding”. In experiment [1], KNEDGAPC [p5446, mimotope] gave a Binding of 2. The Competition in experiment [2] is on record as 1. QASFAMEC [p5547, mimotope] came in with a Binding in experiment [1] of 1.

LPSFRLEC [p5466, mimotope]: in experiment [1], the Binding was found to be 1. Also, the “class of immunogenicity: a Syn” value in experiment [3] was 0 (peptides inducing no immune response or a very low immune response with OD halfmax around 50 or lower.).

HSAEGAPC [p5604, mimotope] had a Binding in experiment [1] of 1. On to KPSFKNEC [p5461, mimotope], for which the Binding in experiment [1] turned out to be 2. Besides, the “class of immunogenicity: a Syn” value in experiment [3] is 0 (peptides inducing no immune response or a very low immune response with OD halfmax around 50 or lower.). The substance HNDEGAPC [p5596, mimotope] yielded a Binding in experiment [1] of 2. Consider KSEEGAPC [p5448, mimotope], for which the Binding in experiment [1] turned out to be 2. This substance also gave a Competition in experiment [2] of 1. In the case of NEEGAPQC [p5399, reference compound], the “detection/binding” value in experiment [1] is “lost binding”. Substance TASWKGEC [p5548, mimotope] had a Binding in experiment [1] of 2. The same substance gave a Competition in experiment [2] of 1. Take HNAEGAPC [p5598, mimotope]: the Binding in experiment [1] is recorded as 1. Consider SPSFKQEC [p5463, mimotope], for which, in experiment [1], the Binding is reported as 2. Further, in experiment [3], the “class of immunogenicity: a Syn” value is on record as 0 (peptides inducing no immune response or a very low immune response with OD halfmax around 50 or lower.). Regarding RSDEGAPC [p5606, mimotope], the Binding in experiment [1] came to 2. The same measure, in the same setting: the figure for ANEEGAPC [p5437, mimotope] is 2; for ANDEGAPC [p5591, mimotope] it is 2. As for LGKNEC [p5406, reference compound], the “detection/binding” value in experiment [1] is on record as “lost binding”. Same read-out and setting: the entry for EEGAPQC [p5400, reference compound] is “lost binding”. The same measure, in the same setting: as for KNEAGAPC [p5440, mimotope], the entry is “not detected”. Consider RNAEGAPC [p5597, mimotope], for which, in experiment [1], the Binding is reported as 2. In experiment [2], this substance returned a Competition of 1. Further, in experiment [3], the “class of immunogenicity: a Syn” value is 1 (peptides inducing an immune response with OD halfmax between 1000 and 51.). RSEEGAPC [p5590, mimotope] had a Binding in experiment [1] of 2. For the same substance, the Competition in experiment [2] is given as 1. Moreover, in experiment [3], the “class of immunogenicity: a Syn” value is 1 (peptides inducing an immune response with OD halfmax between 1000 and 51.).

Take HSDEGAPC [p5608, mimotope]: in experiment [1], the Binding amounted to 1. For RNEDGAPC [p5588, mimotope], the Binding in experiment [1] turned out to be 2. Moreover, in experiment [2], the Competition came out at 1. As for LGKNEEC [p5405, reference compound], the “detection/binding” value in experiment [1] is reported as “lost binding”.

KSAEGAPC [p5599, mimotope] came in with a Binding in experiment [1] of 2.

The substance QPSSKLDC [p5468, mimotope] gave a Binding in experiment [1] of 2. Besides, in experiment [3], the “class of immunogenicity: a Syn” value is on record as 0 (peptides inducing no immune response or a very low immune response with OD halfmax around 50 or lower.). In experiment [1], RQDEGAPC [p5602, mimotope] came in with a Binding of 2. The substance also came in with a Competition in experiment [2] of 1.

Turning to TPSWAGEC [p5558, mimotope], the Binding in experiment [1] was determined as 2. The substance DPSFALEC [p5465, mimotope] displayed a Binding in experiment [1] of 2. Besides, the “class of immunogenicity: a Syn” value in experiment [3] is listed as 0 (peptides inducing no immune response or a very low immune response with OD halfmax around 50 or lower.). For RQEDGAPC [p5603, mimotope], the Binding in experiment [1] was determined as 2. The substance also displayed a Competition in experiment [2] of 1. For RQDDGAPC [p5610, mimotope], the Binding in experiment [1] worked out at 2. On the same count and under the same terms, as for CTPSWKGE [p5560, mimotope], the figure is 2; as for QASSKLDC [p5549, mimotope], 1. With KNEEGAPQC [p5398, reference compound], in experiment [1], the Binding came to 2 and the “detection/binding” value is reported as “retained full binding capacities”. The Competition in experiment [2] is 2. For TPSAKGEC [p5557, mimotope], the Competition in experiment [2] is on record as 1.

For LGKNEEGAPQC [p4453, reference compound], in experiment [1], the Binding is recorded as 2 and the “detection/binding” value was “detected; also recorded: retained full binding capacities”. As to KAEEGAPC [p5438, mimotope], the Binding in experiment [1] is given as 1.

EGAPQC [p5401, reference compound]: the “detection/binding” value in experiment [1] is on record as “lost binding”.

Beta-Synuclein [p4447]: the “detection/binding” value is “not detected” in experiment [1] and “does not detect” in experiment [1] (listed as beta-synuclein protein). With RQEEGAPC [p5589, mimotope], the Binding in experiment [1] is listed as 2. Take LGKNEEGAC [p5403, reference compound]: the “detection/binding” value in experiment [1] is “lost binding”.

As for KQEEGAPC [p5447, mimotope], in experiment [1], the Binding is recorded as 2.
